Activity calls are given as the source filed them.
What was measured:
HEK293 [1] = experiment: NOD1 signaling inhibitors, primary screen, cell-based, luminescence, uHTS (AID 1578); assay type: functional; details: Homo sapiens
HEK293 [2] = experiment: cells; assay type: functional, cell-based; details: Homo sapiens
HEK293 [3] = experiment: cells; assay type: functional, cell-based; details: Homo sapiens; remark: listed apart in the source
HEK293 [4] = experiment: NOD2 signaling inhibitors in MDP-stimulated cells, cell-based, uHTS, luminescence (AID 2001); assay type: functional; details: Homo sapiens
Tumor necrosis factor = Tumor necrosis factor (Homo sapiens, UniProt P01375); experiment: TNFa-triggered NF-kB activation inhibitors, SAR follow-up, cell-based, revised (AID 2337); assay type: functional
Sequence of Tumor necrosis factor (P01375 whole entry, the tested form may be a part): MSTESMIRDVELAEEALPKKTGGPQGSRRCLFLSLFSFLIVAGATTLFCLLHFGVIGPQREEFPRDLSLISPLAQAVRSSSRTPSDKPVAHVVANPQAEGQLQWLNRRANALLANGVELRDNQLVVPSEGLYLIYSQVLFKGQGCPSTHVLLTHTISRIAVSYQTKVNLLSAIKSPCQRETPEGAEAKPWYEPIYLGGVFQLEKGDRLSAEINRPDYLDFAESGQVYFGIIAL

[5] = molecular target: T1, Nucleotide-binding oligomerization domain-containing protein 1 (Homo sapiens, UniProt Q9Y239); experiment: NOD1 signaling inhibitors, SAR follow-up, revised (AID 2333); assay type: functional
T1 sequence (Q9Y239 whole entry): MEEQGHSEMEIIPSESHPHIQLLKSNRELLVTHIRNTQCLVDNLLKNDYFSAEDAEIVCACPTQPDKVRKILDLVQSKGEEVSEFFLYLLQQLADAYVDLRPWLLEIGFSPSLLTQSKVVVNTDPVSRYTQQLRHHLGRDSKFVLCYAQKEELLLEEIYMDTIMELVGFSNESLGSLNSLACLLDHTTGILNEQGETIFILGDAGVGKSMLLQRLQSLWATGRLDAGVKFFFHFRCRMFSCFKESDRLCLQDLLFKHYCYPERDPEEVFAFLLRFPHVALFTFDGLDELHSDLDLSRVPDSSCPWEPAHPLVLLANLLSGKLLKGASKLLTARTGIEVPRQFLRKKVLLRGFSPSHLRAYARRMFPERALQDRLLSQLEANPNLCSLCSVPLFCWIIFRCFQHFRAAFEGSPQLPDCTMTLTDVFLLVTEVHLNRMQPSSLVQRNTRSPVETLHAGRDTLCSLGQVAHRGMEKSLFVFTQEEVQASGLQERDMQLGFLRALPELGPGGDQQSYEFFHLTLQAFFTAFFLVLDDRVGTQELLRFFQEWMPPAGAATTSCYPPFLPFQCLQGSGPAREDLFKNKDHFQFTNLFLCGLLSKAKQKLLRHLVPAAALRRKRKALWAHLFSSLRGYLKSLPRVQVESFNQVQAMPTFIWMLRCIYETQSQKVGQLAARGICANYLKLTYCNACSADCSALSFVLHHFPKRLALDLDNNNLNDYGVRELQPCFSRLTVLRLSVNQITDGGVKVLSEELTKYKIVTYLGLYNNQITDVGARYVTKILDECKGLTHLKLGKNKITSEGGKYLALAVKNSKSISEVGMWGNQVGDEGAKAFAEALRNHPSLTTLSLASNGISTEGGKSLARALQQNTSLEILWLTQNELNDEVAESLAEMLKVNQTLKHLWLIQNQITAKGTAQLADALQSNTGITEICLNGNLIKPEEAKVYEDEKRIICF

HEK293 [6] = experiment: cells; details: Homo sapiens
[7] = molecular target: Glucose-6-phosphate 1-dehydrogenase (Homo sapiens, UniProt P11413); experiment: human G6PD enzyme inhibitors, dose response, selectivity assay for P. falciparum G6PD inhibitor project, biochemical, fluorescence (AID 504792); assay type: functional
Sequence of Glucose-6-phosphate 1-dehydrogenase (P11413 whole entry): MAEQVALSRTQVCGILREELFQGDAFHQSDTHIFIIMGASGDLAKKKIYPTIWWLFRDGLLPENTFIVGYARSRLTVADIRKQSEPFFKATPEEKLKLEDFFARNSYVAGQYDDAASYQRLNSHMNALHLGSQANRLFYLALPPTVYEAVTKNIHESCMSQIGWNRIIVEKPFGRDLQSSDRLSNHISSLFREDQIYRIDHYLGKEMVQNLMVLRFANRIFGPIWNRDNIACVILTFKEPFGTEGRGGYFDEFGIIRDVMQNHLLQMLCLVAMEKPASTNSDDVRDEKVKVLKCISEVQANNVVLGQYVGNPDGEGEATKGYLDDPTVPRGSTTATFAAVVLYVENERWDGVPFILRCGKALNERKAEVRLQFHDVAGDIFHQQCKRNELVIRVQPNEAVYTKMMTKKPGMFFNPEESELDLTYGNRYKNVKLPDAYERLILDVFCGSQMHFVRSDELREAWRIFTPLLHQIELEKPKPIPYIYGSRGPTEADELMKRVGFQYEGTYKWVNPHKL

Vero = experiment: cells; assay type: functional; details: Chlorocebus sabaeus
cells = assay type: functional
[8] = molecular target: T2, Ubiquitin-conjugating enzyme E2 N (Homo sapiens, UniProt P61088); assay type: functional;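 further: Dose-response confirmation in a TR-FRET assay detecting UBC13-driven polyubiquitin chain formation, inhibition measured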
T2 sequence (P61088 whole entry): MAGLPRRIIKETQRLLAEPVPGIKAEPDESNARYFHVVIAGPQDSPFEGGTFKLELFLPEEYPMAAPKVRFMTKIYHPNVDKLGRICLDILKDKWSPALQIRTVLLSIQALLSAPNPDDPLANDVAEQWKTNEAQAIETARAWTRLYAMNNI

[9] = microbe, parasite or virus in culture; assay type: functional; details: Mycobacterium tuberculosis
[10] = Shn3 3'UTR reporter inhibitors, dose response, cell-based, Clone20 osteoblasts, firefly luciferase, cherry-picked (AID 624132); assay type: functional;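 further: firefly luciferase luminescence from reporter carrying the Shn3 3'UTR in osteoblasts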
[11] = HepG2 cell cytotoxicity, dose response, cytotoxicity control for Shn3 inhibitor project, CellTiter-Glo, cherry-picked (AID 624134); assay type: functional, cell-based
[12] = control 3'UTR Renilla luciferase suppression, dose response, counter-screen for Shn3 inhibitor project, cell-based, Clone20-Shn3RL, cherry-picked (AID 624133); assay type: functional
[13] = molecular target: Peroxisome proliferator-activated receptor gamma/Nuclear receptor coactivator 2 (Homo sapiens, UniProt P37231); assay type: functional;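 further: agonist potency for raising coactivator recruitment to the receptor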
Sequence of Peroxisome proliferator-activated receptor gamma/Nuclear receptor coactivator 2 (P37231 whole entry): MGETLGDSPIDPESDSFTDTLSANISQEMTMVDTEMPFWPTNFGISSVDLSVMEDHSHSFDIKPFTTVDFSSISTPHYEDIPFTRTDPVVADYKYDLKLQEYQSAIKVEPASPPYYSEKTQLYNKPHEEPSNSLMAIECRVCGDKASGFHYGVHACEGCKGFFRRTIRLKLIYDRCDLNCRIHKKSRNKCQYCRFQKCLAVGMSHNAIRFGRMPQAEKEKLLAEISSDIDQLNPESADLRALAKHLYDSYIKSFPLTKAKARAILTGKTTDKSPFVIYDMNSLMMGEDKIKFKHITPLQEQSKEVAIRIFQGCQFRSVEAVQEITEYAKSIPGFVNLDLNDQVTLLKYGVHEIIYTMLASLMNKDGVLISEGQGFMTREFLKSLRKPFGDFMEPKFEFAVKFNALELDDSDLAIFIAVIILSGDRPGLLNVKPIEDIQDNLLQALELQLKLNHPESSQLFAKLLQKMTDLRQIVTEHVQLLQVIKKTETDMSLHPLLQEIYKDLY
Sequence of Peroxisome proliferator-activated receptor gamma/Nuclear receptor coactivator 2 (Q15596 whole entry, further chain): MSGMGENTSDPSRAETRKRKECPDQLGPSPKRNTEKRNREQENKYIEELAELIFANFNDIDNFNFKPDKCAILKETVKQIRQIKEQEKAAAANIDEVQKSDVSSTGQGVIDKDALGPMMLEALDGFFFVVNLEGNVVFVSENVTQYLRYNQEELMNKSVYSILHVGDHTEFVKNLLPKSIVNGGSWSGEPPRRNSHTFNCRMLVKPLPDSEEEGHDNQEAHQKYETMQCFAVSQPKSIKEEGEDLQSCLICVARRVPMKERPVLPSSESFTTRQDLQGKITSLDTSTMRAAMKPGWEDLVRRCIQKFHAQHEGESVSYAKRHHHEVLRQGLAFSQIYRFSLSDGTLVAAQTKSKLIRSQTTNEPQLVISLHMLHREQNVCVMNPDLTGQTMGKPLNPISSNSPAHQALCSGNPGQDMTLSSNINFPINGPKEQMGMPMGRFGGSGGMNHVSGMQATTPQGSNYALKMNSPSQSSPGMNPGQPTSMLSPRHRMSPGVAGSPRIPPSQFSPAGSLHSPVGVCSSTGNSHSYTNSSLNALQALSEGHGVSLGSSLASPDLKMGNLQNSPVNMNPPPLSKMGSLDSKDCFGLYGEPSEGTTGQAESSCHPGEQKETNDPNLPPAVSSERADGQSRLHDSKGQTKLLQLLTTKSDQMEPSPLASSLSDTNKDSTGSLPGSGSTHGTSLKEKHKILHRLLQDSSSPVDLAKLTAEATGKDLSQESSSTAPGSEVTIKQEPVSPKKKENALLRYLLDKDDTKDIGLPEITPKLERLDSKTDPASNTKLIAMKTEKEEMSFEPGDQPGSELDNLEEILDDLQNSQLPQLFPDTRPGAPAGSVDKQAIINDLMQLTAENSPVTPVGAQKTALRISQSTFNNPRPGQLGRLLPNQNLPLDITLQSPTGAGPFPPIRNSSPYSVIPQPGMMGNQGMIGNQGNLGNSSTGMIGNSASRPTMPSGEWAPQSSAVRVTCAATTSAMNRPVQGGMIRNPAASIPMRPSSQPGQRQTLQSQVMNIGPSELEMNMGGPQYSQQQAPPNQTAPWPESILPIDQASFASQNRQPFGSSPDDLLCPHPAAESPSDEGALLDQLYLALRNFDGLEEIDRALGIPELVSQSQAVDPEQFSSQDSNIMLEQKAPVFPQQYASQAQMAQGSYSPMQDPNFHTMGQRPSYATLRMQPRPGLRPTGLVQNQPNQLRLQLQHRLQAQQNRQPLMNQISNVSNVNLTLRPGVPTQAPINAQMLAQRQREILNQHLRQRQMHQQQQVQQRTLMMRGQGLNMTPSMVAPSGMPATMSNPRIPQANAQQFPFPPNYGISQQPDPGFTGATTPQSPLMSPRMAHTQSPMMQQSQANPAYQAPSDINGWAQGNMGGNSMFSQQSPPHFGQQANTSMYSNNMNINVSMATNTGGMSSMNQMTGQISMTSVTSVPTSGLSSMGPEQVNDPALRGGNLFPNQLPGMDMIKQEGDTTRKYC

[14] = molecular target: Peroxisome proliferator-activated receptor gamma/Nuclear receptor coactivator 1 (Homo sapiens, UniProt P37231); assay type: functional;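 further: agonist potency as compounds enhance coactivator SRC-1 recruitment to PPARgamma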
[15] = molecular target: Peroxisome proliferator-activated receptor gamma/Nuclear receptor coactivator 3 (Homo sapiens, UniProt P37231); assay type: functional;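 further: agonist potency for raising coactivator recruitment to the receptor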
Sequence of Peroxisome proliferator-activated receptor gamma/Nuclear receptor coactivator 3 (P37231 whole entry): as the sequence (P37231 whole entry) above
Sequence of Peroxisome proliferator-activated receptor gamma/Nuclear receptor coactivator 3 (Q9Y6Q9 whole entry, further chain): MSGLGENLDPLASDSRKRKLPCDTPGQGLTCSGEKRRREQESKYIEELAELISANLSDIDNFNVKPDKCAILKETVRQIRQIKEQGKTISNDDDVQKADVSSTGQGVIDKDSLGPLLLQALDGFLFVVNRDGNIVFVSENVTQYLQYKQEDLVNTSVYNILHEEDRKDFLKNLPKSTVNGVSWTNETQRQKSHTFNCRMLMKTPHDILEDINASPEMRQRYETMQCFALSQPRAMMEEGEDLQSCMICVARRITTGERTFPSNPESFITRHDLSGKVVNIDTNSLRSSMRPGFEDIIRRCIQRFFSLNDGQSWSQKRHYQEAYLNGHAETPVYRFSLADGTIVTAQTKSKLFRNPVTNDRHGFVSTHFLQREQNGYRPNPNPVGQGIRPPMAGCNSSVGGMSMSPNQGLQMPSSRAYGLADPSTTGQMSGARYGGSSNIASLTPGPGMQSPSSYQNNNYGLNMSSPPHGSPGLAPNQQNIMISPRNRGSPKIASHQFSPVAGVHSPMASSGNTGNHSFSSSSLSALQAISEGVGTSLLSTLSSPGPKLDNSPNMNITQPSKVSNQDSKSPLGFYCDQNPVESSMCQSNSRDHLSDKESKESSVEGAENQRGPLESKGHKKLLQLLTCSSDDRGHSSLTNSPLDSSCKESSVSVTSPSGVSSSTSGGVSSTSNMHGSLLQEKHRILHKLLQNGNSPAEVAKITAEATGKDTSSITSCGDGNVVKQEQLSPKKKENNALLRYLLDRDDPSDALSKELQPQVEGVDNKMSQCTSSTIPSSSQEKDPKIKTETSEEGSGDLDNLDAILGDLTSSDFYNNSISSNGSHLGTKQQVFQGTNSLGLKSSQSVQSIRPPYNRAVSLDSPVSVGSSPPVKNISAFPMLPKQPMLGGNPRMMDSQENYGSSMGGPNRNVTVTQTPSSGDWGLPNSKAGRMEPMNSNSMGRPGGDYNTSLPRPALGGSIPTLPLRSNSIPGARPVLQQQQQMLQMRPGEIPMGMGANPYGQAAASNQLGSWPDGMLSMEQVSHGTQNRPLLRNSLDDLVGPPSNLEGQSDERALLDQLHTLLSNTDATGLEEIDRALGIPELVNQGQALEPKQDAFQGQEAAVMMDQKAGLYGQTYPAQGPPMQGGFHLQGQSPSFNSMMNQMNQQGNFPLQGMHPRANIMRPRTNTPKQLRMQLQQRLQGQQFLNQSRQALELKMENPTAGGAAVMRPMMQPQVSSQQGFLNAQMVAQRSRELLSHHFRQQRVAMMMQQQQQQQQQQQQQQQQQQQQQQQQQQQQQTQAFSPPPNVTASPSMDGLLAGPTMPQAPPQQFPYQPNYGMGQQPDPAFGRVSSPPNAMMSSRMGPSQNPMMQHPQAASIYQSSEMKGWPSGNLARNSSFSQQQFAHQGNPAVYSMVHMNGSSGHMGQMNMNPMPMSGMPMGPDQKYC

[16] = molecular target: T3, Heat shock factor protein 1 (Mus musculus, UniProt P38532); experiment: HSF1 potentiators in luciferase reporter cells, confirmation, cell-based, NIH3T3, luminescence, dose retest (AID 435004); assay type: functional;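 further: stress induced by proteasome inhibitor MG132 added 30 min after compound; luciferase reporter driven by HSF1 response element in NIH3T3 cells; actives raise luminescence as potentiators of the MG132 stress response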
T3 sequence (P38532 whole entry): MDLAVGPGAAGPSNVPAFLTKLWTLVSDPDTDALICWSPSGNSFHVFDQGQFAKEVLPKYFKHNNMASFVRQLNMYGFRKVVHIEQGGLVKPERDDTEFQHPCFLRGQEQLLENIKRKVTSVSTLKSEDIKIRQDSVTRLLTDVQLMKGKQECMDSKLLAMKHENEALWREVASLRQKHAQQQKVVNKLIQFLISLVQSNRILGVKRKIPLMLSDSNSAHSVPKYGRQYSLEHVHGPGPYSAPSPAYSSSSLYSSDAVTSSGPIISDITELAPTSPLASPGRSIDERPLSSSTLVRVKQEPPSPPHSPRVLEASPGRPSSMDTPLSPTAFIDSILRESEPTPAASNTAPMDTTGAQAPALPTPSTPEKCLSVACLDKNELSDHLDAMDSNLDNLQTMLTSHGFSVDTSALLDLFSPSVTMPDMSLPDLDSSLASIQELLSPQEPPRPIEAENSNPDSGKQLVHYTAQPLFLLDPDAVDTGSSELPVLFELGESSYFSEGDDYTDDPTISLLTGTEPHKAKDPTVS

[17] = molecular target: Glyceraldehyde-3-phosphate dehydrogenase (Homo sapiens, UniProt P04406)
Sequence of Glyceraldehyde-3-phosphate dehydrogenase (P04406 whole entry): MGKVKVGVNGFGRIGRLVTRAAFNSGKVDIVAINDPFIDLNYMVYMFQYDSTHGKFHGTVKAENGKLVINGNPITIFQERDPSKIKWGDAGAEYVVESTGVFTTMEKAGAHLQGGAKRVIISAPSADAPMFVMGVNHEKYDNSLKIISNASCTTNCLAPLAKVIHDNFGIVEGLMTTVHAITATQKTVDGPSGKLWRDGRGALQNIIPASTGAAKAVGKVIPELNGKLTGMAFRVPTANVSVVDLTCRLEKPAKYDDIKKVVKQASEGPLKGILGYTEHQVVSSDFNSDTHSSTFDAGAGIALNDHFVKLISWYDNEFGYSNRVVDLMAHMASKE

[18] = molecular target: T4, Corticotropin-releasing factor receptor 2/Corticotropin-releasing factor-binding protein (Homo sapiens, UniProt P24387+Q13324); experiment: Dose Response confirmation of uHTS hits for small molecule antagonists of the CRF-binding protein and CRF-R2 receptor complex.; assay type: functional; details: read-out: IC50_Mean
T4 sequence (Q13324 whole entry): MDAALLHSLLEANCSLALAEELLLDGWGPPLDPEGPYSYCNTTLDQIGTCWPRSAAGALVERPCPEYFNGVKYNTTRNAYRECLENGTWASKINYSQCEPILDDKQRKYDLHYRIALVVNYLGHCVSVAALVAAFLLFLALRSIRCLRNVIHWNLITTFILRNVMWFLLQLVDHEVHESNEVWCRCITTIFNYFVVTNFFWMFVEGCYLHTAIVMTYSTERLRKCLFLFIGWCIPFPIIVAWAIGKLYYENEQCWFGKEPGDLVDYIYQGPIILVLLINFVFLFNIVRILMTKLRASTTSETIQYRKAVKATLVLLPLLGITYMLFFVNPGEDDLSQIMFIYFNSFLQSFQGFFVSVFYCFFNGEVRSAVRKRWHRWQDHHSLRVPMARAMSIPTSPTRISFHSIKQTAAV
T4 sequence (P24387 whole entry): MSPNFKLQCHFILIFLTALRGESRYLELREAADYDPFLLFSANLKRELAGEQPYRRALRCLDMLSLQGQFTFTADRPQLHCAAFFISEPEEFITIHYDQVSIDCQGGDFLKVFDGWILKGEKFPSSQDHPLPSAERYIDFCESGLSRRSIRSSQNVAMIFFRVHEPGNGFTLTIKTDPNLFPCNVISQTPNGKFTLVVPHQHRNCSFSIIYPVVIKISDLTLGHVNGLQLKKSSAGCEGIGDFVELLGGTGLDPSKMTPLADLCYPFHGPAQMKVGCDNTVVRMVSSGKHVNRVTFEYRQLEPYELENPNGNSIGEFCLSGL

[19] = molecular target: T4, Corticotropin-releasing factor receptor 2/Corticotropin-releasing factor-binding protein; experiment: activators of CRF receptor 2 with binding protein – uHTS hits, confirmation (AID 602473); assay type: functional; details: read-out: EC50_Mean
[20] = molecular target: T3, Heat shock factor protein 1; experiment: inhibition of MG132-induced HSE-luciferase signal, confirmation, cell-based, NIH3T3, luminescence, dose retest (AID 2382); assay type: functional;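 further: NIH3T3 fibroblasts with HSF1-driven luciferase reporter stressed by proteasome inhibitor MG132; luminescence from HSF1-driven luciferase expression after 8 hours of MG132 stress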
[21] = HEp-2 cell cytotoxicity, dose response, cytotoxicity control for RSV inhibitor project, HTS (AID 2410); assay type: functional; details: human respiratory syncytial virus

## COc1ccc(CNS(=O)(=O)c2ccc3c(c2)CC(C)N3C(=O)C2CC2)cc1 (stereo unspecified)
HEK293 [1]
  EC50: 3.88 µM (active)
HEK293 [2]
  IC50: 7.96 µM (active)
HEK293 [3]
  IC50: 14.8 µM (active)
HEK293 [4]
  IC50: 12.5 µM (inactive)
Tumor necrosis factor
  IC50: > 20 µM (inactive)
[5]
  IC50: 13.1 µM (active)
HEK293 [6]
  IC50: > 20 µM (inactive)

## CCn1c(=O)n(CC)c2cc(N3CCCC3)c(NC(=O)c3cccc(C)c3)cc21
[7]
  IC50: > 80 µM (inactive)

## CCOc1ccccc1NC(=O)CCCc1nc(O)c2ccccc2n1
[7]
  IC50: 71.7 µM (inactive)

## COc1ccccc1CN1CCC(CNS(=O)(=O)c2cc(-c3cc(C)no3)ccc2OC)CC1
Vero
  CC50: > 25 µM (active)

## CCOc1ccc2ccccc2c1/C=N/NC(=O)c1ccncc1
[7]
  IC50: 27.1 µM (inactive)
cells
  IC50: 0.21 µM (active)

## CCNc1cc2c(cc1O)CCC1C2CCC2(C)C(O)CCC12 (stereo unspecified)
[7]
  IC50: > 80 µM (inactive)

## COC(=O)c1c(NC(=O)C(=O)N2CCCC2)sc2c1CC(C)(C)OC2
[8]
  IC50: > 20 µM (inactive)

## Oc1ccccc1Nc1nc(NCc2ccccc2)c2ccccc2n1
[9]
  CC50: 23.9 µM (active)
[8]
  IC50: > 20 µM (inactive)
[10]
  AC50: 10.7 µM (active)
[11]
  AC50: 52.7 µM (active)
[12]
  AC50: 5.63 µM (active)

## COC1=CC(=O)C=C(OC)C1(O)CC(C)=O
[7]
  IC50: 54.3 µM (inactive)

## COC(=O)c1ccc(C(=O)OC)c(NC(=O)C(C)(C)C)c1
[13]
  EC50: > 79.4 µM (not active)
[14]
  EC50: > 79.4 µM (not active)
[15]
  EC50: > 79.4 µM (not active)
[16]
  EC50: > 260 µM (inactive)

## O=C(O)c1cc(NS(=O)(=O)c2cc([N+](=O)[O-])ccc2Cl)ccc1O
[17]
  IC50: > 100 µM (not active)

## COc1cc([N+](=O)[O-])ccc1S(=O)(=O)Nc1cccnc1
[17]
  IC50: > 100 µM (not active)

## COc1ccc(Cl)cc1Nc1nc(NCCO)nc(N2CCCCC2)n1
[8]
  IC50: > 20 µM (inactive)
[18]
  IC50: > 47.1 µM (inactive)
[19]
  EC50: > 53 µM (inactive)

## Cc1ccc2c(c1)C1CN(C)CCC1N2C(=O)Nc1cccc(C(F)(F)F)c1 (stereo unspecified)
[20]
  EC50: > 195 µM (not active)
Vero
  CC50: > 25 µM (active)

## CC(C)(C)OC(=O)[C@H](CCCCN)NC(=O)c1[nH]cnc1C(=O)N[C@@H](Cc1ccccc1)C(=O)OCc1ccccc1
[8]
  IC50: > 20 µM (inactive)

## CCOc1cccc(C=NN=C(S)Nc2ccccc2[N+](=O)[O-])c1O
Tumor necrosis factor
  IC50: 0.414 µM (active)
[5]
  IC50: 8.23 µM (active)
HEK293 [6]
  IC50: > 20 µM (inactive)

## COC(=O)c1c(NC(=O)C=Cc2cccs2)sc2c1CCC(C)C2 (stereo unspecified)
Tumor necrosis factor
  IC50: 5.68 µM (active)
[5]
  IC50: 9.46 µM (active)
HEK293 [6]
  IC50: > 20 µM (inactive)

## COc1ccc(S(=O)(=O)N2CCN(c3ccc4nnc(-c5ccccc5)n4n3)CC2)cc1
[21]
  CC50: > 50 µM (active)
[8]
  IC50: > 20 µM (inactive)

## CCCCOc1ccc(NC2=NC3(CCCC3)N=C(N)N2)cc1
[13]
  EC50: > 79.4 µM (not active)
[14]
  EC50: > 79.4 µM (not active)
[15]
  EC50: > 79.4 µM (not active)

## O=C(c1cnc(-c2ccc(Cl)cc2)s1)c1ccc(Cl)cc1Cl
[13]
  EC50: 18.7 µM (not active)
[14]
  EC50: 30.8 µM (not active)
[15]
  EC50: 38.7 µM (not active)

Source: ChEMBL document CHEMBL1201862, “PubChem BioAssay data set” (2004)
